28 compounds from ChEMBL document CHEMBL3797188, “Piperidine derivatives as nonprostanoid IP receptor agonists 2” (Bioorg Med Chem Lett, 2016) can be followed below.

Structures are written as SMILES. pIC50, pKi: −log10 of the molar value.

A short description of series [1]: Antiplatelet activity in human platelet rich plasma assessed as inhibition of ADP-induced platelet aggregation. It counts as functional, cell-free.
A short description of series [2]: Oral bioavailability in fasted dog at 0.5 mg/kg. The note with it: in vivo. It counts as ADME, organism-based, Canis lupus familiaris.
In series [3] the target is T1, Thromboxane A2 receptor (Homo sapiens, UniProt P21731).
T1 sequence (P21731 whole entry): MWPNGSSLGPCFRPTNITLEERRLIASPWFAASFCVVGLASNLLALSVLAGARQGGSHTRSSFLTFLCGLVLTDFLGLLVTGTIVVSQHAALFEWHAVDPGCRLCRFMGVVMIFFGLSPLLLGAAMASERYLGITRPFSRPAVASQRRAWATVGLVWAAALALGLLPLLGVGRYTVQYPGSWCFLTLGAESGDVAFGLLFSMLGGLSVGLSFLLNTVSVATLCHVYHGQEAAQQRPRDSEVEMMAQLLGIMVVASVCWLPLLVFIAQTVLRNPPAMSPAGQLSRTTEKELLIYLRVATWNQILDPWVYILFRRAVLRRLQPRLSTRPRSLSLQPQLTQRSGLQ
As to the kind of experiment: Binding affinity to human TP receptor.

The nature of series [4]: Cmax in fasted dog at 0.5 mg/kg, po. As to conditions: in vivo. Also noted: dose 0.5 mg/kg, route oral. In kind it is ADME, organism-based, Canis lupus familiaris.
Series [5] addresses Prostaglandin E2 receptor EP2 subtype (Homo sapiens, UniProt P43116). Put plainly: Binding affinity to human EP2 receptor.
Series [6] addresses Prostaglandin E2 receptor EP4 subtype (Homo sapiens, UniProt P35408). As to the kind of experiment: Binding affinity to human EP4 receptor.
In series [7] the target is Prostacyclin receptor (Homo sapiens, UniProt P43119). Put plainly: Binding affinity to human IP receptor.
Prostacyclin receptor, sequence (P43119 whole entry): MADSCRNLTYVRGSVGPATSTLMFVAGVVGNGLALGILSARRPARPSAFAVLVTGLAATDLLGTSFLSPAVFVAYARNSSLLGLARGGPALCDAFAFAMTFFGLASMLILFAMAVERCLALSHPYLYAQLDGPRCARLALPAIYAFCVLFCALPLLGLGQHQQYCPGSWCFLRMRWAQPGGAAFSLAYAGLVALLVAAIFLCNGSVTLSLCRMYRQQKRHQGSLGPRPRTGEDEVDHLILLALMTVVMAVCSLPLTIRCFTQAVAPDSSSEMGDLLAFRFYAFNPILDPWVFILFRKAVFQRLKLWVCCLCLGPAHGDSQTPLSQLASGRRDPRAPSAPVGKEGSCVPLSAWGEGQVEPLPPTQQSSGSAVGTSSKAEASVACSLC
Series [8] addresses T2, Prostaglandin E2 receptor EP3 subtype (Homo sapiens, UniProt P43115).
T2 sequence (P43115 whole entry): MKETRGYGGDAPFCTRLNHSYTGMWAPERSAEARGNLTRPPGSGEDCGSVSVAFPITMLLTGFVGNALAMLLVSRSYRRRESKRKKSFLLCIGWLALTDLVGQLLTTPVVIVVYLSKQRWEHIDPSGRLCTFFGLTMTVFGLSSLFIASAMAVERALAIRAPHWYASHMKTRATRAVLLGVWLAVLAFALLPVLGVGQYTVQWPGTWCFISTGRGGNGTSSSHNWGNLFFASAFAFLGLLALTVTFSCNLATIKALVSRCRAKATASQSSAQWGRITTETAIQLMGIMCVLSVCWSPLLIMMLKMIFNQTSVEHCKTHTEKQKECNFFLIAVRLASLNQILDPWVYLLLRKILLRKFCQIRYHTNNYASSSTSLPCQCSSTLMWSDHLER
As to the kind of experiment: Binding affinity to human EP3 receptor.

The target in series [9] is Prostaglandin F2-alpha receptor (Homo sapiens, UniProt P43088). Put plainly: Binding affinity to human FP receptor.
Prostaglandin F2-alpha receptor, sequence (P43088 whole entry): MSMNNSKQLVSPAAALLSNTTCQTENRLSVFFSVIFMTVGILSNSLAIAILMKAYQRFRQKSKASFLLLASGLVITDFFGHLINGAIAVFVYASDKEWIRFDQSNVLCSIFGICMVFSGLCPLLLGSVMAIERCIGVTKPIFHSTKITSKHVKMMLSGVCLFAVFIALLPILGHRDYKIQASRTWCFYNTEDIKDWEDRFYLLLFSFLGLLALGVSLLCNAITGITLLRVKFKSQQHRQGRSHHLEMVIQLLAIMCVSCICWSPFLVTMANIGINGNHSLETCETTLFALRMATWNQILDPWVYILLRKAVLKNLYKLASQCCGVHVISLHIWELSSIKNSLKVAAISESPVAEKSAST

Prostaglandin E2 receptor EP2 subtype, sequence (P43116 whole entry): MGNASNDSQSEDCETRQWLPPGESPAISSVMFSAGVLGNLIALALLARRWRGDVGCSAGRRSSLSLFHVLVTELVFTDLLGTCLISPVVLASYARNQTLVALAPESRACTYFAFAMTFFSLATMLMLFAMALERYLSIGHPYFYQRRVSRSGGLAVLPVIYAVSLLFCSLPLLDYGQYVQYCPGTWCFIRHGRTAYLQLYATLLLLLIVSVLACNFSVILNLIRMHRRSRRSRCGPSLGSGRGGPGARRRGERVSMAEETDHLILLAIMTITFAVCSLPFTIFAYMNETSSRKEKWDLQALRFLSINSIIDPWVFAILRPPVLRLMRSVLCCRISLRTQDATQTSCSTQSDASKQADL
Prostaglandin E2 receptor EP4 subtype, sequence (P35408 whole entry): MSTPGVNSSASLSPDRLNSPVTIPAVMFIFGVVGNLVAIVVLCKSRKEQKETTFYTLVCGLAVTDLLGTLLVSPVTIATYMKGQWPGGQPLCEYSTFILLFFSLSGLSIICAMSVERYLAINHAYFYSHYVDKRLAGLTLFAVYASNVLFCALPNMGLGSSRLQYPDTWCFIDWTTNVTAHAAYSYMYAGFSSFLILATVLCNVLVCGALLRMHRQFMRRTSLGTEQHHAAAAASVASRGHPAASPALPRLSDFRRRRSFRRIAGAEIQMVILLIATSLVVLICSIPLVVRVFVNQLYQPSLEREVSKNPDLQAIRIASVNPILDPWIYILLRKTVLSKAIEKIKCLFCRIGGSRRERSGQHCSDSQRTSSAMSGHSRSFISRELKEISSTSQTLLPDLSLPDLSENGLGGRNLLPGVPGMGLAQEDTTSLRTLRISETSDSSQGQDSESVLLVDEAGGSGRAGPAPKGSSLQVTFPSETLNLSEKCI

On to `COc1cccc(C(=O)N(CCN2CCC(OCC(=O)O)CC2)c2ccc(C)cc2)c1`, for which, in series [1], the pIC50 was 7.49.
On to `O=C(O)COC1CCN(CCN(C(=O)c2ccccc2)c2ccc(Cl)cc2)CC1`, for which, in [1], the pIC50 was 6.36.
As for `COc1ccc(OC)c(C(=O)N(CCN2CCC(OCC(=O)O)CC2)c2ccc(C)cc2)c1`, the pIC50 in series [1] is under 5.52.
On to `Cc1ccc(N(CCN2CCC(OCC(=O)O)CC2)C(=O)c2ccc(C(F)(F)F)cc2)cc1`, for which the negative logarithm of the IC50 (pIC50) in [1] was under 5.00.
On to `Cc1ccc(N(CCN2CCC(OCC(=O)O)CC2)C(=O)c2cccc(Cl)c2)cc1`, for which the pIC50 in series [1] was 7.00.
Take `O=C(O)COC1CCN(CCN(C(=O)c2ccc(-c3ccccc3)cc2)c2ccc(Cl)cc2)CC1`: the negative-log IC50 (pIC50) in [1] is under 5.00.
As for `Cc1cccc(C(=O)N(CCN2CCC(OCC(=O)O)CC2)c2ccc(Cl)cc2)c1`, the pIC50 in [1] is 6.51.
In turn, `Cc1ccc(N(CCN2CCC(OCC(=O)O)CC2)C(=O)c2ccc3c(c2)OCO3)cc1.Cl.O` showed a bioavailability in series [2] of 76%. For the same compound, the pKi was under 4.30 in [3]; under 4.30 in series [5]; under 4.30 in series [6]; 6.40 in series [7]; under 4.30 in [8]; under 4.30 in [9]. This compound registered a peak concentration (Cmax) in series [4] of 130 ng/mL.
Take `COc1ccc(C(=O)N(CCN2CCC(OCC(=O)O)CC2)c2ccc(C)cc2)cc1OC`: in [1], the negative logarithm of the IC50 (pIC50) is under 5.52.
Same read-out and setting: the result for `Cc1ccc(N(CCN2CCC(OCC(=O)O)CC2)C(=O)c2ccc(F)cc2)cc1` reads 6.01.
Take `COc1cccc(C(=O)N(CCN2CCC(OCC(=O)O)CC2)c2ccc(C)cc2)c1OC`: in series [1], the pIC50 is 5.80.
As to `Cc1ccc(N(CCN2CCC(OCC(=O)O)CC2)C(=O)c2ccccc2)cc1`, the pIC50 in series [1] was 6.66.
Regarding `Cc1ccc(N(CCN2CCC(OCC(=O)O)CC2)C(=O)c2ccc(Cl)cc2)cc1`, the negative logarithm of the IC50 (pIC50) in series [1] is 6.16.
Take `O=C(O)COC1CCN(CCN(C(=O)c2cccc(Cl)c2)c2ccc(Cl)cc2)CC1`: the pIC50 in series [1] is 6.46.
The same measure, in the same setting: the result for `COc1ccc(C(=O)N(CCN2CCC(OCC(=O)O)CC2)c2ccc(C)cc2)cc1` reads 5.92.
On to `Cc1ccc(N(CCN2CCC(OCC(=O)O)CC2)C(=O)c2cccc(F)c2)cc1`, for which, in series [1], the pIC50 is 6.80.
As for `Cc1ccc(N(CCN2CCC(OCC(=O)O)CC2)C(=O)c2ccc(-c3ccccc3)cc2)cc1`, the pIC50 in series [1] was under 5.00.
For `O=C(O)COC1CCN(CCN(C(=O)c2cccc(C(F)(F)F)c2)c2ccc(Cl)cc2)CC1`, in series [1], the negative-log IC50 (pIC50) was under 5.00.
As for `Cc1ccc(N(CCN2CCC(OCC(=O)O)CC2)C(=O)c2cccc(C(F)(F)F)c2)cc1`, in series [1], the negative-log IC50 (pIC50) was 4.70.
Turning to `O=C(O)COC1CCN(CCN(C(=O)c2ccc(C(F)(F)F)cc2)c2ccc(Cl)cc2)CC1`, in [1], the negative logarithm of the IC50 (pIC50) was under 5.00.
As to `COc1ccc(C(=O)N(CCN2CCC(OCC(=O)O)CC2)c2ccc(Cl)cc2)cc1`, the negative-log IC50 (pIC50) in series [1] was 5.51.
On the same count and under the same terms, to `Cc1ccc(N(CCN2CCC(OCC(=O)O)CC2)C(=O)c2cccc(C)c2)cc1` belongs 6.80; to `O=C(O)COC1CCN(CCN(C(=O)c2ccc(Cl)cc2)c2ccc(Cl)cc2)CC1`, 5.82.
For the compound `COc1cccc(C(=O)N(CCN2CCC(OCC(=O)O)CC2)c2ccc(Cl)cc2)c1`, the negative logarithm of the IC50 (pIC50) in series [1] was 7.13.
For the compound `O=C(O)COC1CCN(CCN(C(=O)c2cccc(F)c2)c2ccc(Cl)cc2)CC1`, the pIC50 in series [1] is 6.47.
Same read-out and setting: the result for `COc1cc(OC)cc(C(=O)N(CCN2CCC(OCC(=O)O)CC2)c2ccc(C)cc2)c1` reads 6.28.
Take `Cc1ccc(N(CCN2CCC(OCC(=O)O)CC2)C(=O)c2ccc3c(c2)OCO3)cc1`: in series [1], the pIC50 is 7.68.
On the same count and under the same terms, to `O=C(O)COC1CCN(CCN(C(=O)c2ccc(F)cc2)c2ccc(Cl)cc2)CC1` belongs 5.70.
